Measured values: patent US20060257474A1, “Remedies for glomerular diseases” (Kowa Co., Ltd., priority 2002, published 2006)
Counter-ions that a name gives are not always drawn.

Test system: progressive anti-Thy-1 nephritic rat
Assay: Pharmacological test to a progressive anti-Thy-1 nephritic rat: total amount of protein excretion in urine
Type: in vivo, Wistar female rats
Details: 18 h urine
Procedure: Wistar female rats (5 weeks of age, purchased from Japan SLC Co., Ltd.) were quarantined and acclimatized for 4 days and then used for the test. First, a right kidney of the rat was removed through a flank incision under anesthesia with pentobarbital. After 2 weeks passed, an anti-Thy-1 antibody (monoclonal antibody 1-22-3; purchased from […] Laboratories Co., Ltd.) was intravenously administered (500 μg/rat) into the tail vein to thereby bring about progressive renal damage, and the following tests 1 to 3 were immediately investigated. […] Control group (antibody-treated and compound-non-administered group): N=8, an antibody-non-treated group: N=6. Test 2: dilazep hydrochloride (10 mg/kg) dissolved in a physiological saline was continuously intraperitoneally administered for 10 weeks. Control group (antibody-treated and compound-non-administered group): N=8, an antibody-non-treated group: N=6. […] Control group (antibody-treated and compound-non-administered group): N=10, an antibody-non-treated group: N=6. In each test, after administering the drugs for 10 weeks, urine was taken for 18 hours by means of a metabolic cage (Sugiyama Gen Co., Ltd.) to measure the total amount of protein excretion in urine.

Row | Structure (SMILES) | total amount of protein excretion in urine (dilazep hydrochloride alone, 10 mg/kg intraperitoneally for 10 weeks, vs compound-non-administered control group (FIG. 2)) | total amount of protein excretion in urine (pitavastatin calcium alone, 10 mg/kg orally for 10 weeks, vs compound-non-administered control group (FIG. 1))
1 | COc1cc(C(=O)OCCCN2CCCN(CCCOC(=O)c3cc(OC)c(OC)c(OC)c3)CC2)cc(OC)c1OC [dilazep hydrochloride] | almost the same as that of the compound-non-administered group in the control | 
2 | O=C([O-])C[C@H](O)C[C@H](O)/C=C/c1c(C2CC2)nc2ccccc2c1-c1ccc(F)cc1.O=C([O-])C[C@H](O)C[C@H](O)/C=C/c1c(C2CC2)nc2ccccc2c1-c1ccc(F)cc1.[Ca+2] [pitavastatin calcium] |  | almost the same as that of the compound-non-administered group in the control
